Source: patent EP1824830B1, “RADIOLABELLED QUINOLINE-BASED LIGANDS FOR THE 5-HT6 RECEPTOR FUNCTIONALITY” (GLAXO GROUP LIMITED, priority 2004, dated 2006)
Blank lines part the entries; values can stand above or below the compound they belong to.

Legend:
5-HT6 receptors [1] = assay: PET imaging, saturation of 5-HT6 receptors in the brain
[2] = biological target: T1, human recombinant 5-HT6 receptor (Homo sapiens, UniProt P50406); assay: Radioligand binding, competition studies with [^3H]LSD
T1 construct: expressed in transfected cells; host or cells: HeLa
T1 sequence (P50406 whole entry): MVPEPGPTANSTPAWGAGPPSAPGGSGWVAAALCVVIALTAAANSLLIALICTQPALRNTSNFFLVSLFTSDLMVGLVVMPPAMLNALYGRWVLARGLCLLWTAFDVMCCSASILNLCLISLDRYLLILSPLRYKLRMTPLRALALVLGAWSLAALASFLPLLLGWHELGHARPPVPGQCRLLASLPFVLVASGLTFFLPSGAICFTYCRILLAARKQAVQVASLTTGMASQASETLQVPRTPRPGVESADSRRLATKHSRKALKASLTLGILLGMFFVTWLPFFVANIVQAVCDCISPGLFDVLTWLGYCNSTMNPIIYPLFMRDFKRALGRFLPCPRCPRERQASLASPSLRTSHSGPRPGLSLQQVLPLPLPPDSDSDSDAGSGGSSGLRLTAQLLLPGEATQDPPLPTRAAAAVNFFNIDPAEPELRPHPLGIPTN
Description: (§1) Table 1. Binding Profile (pKi values) of GSK215083

5-HT2A = 5-HT2A (Homo sapiens, UniProt P28223); assay: Binding profile
Chain of 5-HT2A (P28223 whole entry, species assumed): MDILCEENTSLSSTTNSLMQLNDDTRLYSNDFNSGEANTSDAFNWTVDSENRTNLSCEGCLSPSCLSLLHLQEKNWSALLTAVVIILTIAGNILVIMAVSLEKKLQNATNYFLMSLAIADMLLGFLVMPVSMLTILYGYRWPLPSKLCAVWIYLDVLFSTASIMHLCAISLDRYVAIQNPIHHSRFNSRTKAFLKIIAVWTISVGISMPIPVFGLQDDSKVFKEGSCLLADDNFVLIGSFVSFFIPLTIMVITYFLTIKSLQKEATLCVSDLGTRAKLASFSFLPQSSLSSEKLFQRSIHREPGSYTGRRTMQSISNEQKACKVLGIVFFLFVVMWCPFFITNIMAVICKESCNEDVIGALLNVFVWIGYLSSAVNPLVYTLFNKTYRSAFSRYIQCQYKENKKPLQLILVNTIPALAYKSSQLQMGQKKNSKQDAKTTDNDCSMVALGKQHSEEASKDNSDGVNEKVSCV

5-HT2B = 5-HT2B (Homo sapiens, UniProt P41595); assay: Binding profile
Chain of 5-HT2B (P41595 whole entry, species assumed): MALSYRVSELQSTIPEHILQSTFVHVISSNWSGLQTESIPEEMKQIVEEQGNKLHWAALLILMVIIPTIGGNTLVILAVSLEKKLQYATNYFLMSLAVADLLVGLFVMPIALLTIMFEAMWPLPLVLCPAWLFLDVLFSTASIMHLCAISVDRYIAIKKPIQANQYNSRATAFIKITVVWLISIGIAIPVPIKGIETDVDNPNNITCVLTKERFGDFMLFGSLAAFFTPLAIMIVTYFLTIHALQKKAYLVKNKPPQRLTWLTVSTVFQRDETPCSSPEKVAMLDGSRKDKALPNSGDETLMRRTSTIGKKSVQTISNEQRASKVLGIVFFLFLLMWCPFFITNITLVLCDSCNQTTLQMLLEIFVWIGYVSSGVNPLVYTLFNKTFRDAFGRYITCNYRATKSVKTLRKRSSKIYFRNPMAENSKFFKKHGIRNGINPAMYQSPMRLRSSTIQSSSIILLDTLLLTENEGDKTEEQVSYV
Description: as §1

5-HT2C = biological target: T2, 5-HT2C (Homo sapiens, UniProt P28335); assay: Binding profile
T2 sequence (P28335 33-458): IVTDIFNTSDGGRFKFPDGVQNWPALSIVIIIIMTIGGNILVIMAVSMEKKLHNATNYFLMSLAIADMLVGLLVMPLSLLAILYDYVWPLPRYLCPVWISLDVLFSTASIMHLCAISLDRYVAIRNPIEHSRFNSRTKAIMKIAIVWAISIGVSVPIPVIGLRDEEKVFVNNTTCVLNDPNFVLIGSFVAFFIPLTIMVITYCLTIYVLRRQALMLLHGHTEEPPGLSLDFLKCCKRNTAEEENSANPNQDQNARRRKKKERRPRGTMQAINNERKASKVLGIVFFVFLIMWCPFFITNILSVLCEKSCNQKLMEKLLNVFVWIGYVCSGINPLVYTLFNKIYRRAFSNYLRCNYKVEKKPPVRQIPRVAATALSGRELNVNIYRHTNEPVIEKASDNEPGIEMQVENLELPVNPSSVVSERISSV
Description: as §1

5-HT7 = 5-HT7 (Homo sapiens, UniProt P34969); assay: Binding profile
Chain of 5-HT7 (P34969 whole entry, species assumed): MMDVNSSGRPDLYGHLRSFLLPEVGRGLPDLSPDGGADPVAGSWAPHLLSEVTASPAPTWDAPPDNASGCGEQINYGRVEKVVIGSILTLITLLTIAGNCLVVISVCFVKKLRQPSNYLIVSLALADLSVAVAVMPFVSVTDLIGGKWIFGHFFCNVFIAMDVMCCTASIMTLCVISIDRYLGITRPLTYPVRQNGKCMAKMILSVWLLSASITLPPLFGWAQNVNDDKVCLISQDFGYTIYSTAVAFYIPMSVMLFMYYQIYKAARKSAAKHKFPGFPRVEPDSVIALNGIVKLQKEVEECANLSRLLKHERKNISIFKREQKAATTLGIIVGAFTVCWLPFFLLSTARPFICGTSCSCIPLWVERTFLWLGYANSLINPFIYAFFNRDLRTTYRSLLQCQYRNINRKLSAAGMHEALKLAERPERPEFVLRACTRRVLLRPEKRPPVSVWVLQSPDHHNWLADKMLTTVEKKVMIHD
Description: as §1

5-HT1A = biological target: T3, 5-HT1A (Homo sapiens, UniProt P08908); assay: Binding profile
T3 sequence (P08908 1-422): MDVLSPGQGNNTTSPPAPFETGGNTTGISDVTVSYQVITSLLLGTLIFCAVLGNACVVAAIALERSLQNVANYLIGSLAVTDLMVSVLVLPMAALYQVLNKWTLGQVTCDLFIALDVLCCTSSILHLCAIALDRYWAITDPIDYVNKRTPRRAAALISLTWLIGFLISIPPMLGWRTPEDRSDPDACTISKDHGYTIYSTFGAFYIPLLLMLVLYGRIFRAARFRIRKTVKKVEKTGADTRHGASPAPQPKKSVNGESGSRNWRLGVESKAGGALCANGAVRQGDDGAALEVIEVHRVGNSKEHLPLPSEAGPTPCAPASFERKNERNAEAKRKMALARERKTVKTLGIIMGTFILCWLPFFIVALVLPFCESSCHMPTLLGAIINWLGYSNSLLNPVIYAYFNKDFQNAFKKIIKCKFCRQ
Description: as §1

Dopamine D2 = Dopamine D2 (Homo sapiens, UniProt P14416); assay: Binding profile
Chain of Dopamine D2 (P14416 whole entry): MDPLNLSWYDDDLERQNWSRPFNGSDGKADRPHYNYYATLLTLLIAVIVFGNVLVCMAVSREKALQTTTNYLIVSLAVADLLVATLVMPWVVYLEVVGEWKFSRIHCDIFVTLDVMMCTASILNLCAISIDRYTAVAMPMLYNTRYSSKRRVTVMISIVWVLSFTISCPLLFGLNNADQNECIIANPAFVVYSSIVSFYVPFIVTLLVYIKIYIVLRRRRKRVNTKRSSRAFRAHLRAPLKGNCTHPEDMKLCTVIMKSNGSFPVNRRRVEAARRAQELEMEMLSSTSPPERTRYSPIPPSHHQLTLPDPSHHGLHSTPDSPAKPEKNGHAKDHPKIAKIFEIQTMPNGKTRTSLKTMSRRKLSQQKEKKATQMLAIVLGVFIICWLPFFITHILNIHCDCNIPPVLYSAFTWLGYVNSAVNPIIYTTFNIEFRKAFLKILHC
Description: as §1

5-HT1D = 5-HT1D (Homo sapiens, UniProt P28221); assay: Binding profile
Chain of 5-HT1D (P28221 whole entry, species assumed): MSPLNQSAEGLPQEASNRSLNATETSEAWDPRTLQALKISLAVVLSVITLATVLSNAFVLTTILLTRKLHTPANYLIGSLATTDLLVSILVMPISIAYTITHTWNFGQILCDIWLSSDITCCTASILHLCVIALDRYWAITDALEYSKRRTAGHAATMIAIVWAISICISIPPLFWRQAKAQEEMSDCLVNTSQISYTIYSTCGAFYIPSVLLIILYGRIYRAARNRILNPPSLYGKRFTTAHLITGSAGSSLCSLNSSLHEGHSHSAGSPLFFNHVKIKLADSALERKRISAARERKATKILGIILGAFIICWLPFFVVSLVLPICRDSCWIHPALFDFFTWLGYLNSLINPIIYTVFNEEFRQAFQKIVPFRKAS
Description: as §1

Dopamine D3 = Dopamine D3 (Homo sapiens, UniProt P35462); assay: Binding profile
Chain of Dopamine D3 (P35462 whole entry): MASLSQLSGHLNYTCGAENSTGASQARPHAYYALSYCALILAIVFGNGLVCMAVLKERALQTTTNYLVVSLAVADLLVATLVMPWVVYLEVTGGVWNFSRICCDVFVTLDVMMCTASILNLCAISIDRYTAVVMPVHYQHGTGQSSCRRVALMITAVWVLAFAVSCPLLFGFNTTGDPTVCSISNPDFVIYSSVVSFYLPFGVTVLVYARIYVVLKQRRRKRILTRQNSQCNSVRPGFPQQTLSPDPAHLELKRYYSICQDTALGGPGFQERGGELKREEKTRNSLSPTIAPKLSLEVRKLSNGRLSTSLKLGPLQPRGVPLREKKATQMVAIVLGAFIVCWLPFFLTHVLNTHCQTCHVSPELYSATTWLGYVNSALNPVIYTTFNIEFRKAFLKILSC
Description: as §1

α1B adrenoreceptor = biological target: T4, α1B adrenoreceptor (Homo sapiens, UniProt P35368); assay: Binding profile
T4 sequence (P35368 1-520): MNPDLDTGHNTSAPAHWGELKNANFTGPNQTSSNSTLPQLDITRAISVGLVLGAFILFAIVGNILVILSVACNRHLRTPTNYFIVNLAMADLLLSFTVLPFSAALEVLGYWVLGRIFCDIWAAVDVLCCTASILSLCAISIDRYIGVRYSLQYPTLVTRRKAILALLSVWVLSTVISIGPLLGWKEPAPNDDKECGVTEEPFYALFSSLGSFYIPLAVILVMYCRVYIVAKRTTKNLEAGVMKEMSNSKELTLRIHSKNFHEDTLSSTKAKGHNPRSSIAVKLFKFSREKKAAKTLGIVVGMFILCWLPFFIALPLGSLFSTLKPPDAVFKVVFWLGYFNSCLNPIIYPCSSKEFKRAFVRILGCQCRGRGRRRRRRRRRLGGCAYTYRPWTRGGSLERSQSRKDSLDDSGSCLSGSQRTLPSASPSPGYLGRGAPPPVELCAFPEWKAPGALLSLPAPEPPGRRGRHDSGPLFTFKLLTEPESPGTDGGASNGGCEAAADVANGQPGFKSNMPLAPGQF
Description: as §1

5-HT1B = 5-HT1B (Homo sapiens, UniProt P28222); assay: Binding profile
Chain of 5-HT1B (P28222 whole entry, species assumed): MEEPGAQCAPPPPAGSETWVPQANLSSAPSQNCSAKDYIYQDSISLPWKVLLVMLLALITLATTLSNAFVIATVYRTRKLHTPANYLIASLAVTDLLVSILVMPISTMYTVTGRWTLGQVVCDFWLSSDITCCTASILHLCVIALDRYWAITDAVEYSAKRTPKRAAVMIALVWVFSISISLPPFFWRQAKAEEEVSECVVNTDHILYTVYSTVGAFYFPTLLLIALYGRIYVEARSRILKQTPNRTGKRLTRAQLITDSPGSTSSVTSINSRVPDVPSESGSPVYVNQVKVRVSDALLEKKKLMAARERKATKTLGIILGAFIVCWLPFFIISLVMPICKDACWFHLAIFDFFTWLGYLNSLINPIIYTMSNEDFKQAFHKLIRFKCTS
Description: as §1

5-HT6 receptors [3] = conditions: PET
[4] = 60min post administration of 0.5mg/kg GSK215083 with [^11C]GSK215083
[5] = 60 min post coinjection of [^11C]GSK215083 with 0.005mg/kg of GSK215083
[6] = [^11C]GSK215083 coadministered with 0.05mg/kg of GSK215083
[7] = baseline scan, 60 min post injection of [^11C]GSK215083

Ki ([2]; human recombinant 5-HT6 receptor stably expressed in the HeLa cell line, [^3H]LSD as radioligand): 0.151 nM
Ki (5-HT2A): 0.724 nM
Ki (5-HT2B): 9.12 nM
Ki (5-HT2C): 17.8 nM
Ki (5-HT7): > 10000 nM
Ki (5-HT1A): > 7080 nM
Ki (Dopamine D2): 912 nM
Ki (5-HT1D): 69.2 nM
Ki (Dopamine D3): 977 nM
Ki (α1B adrenoreceptor): 977 nM
Ki (5-HT1B): 105 nM
SMILES: CN1CCN(c2cccc3cc(S(=O)(=O)c4cccc(F)c4)cnc23)CC1 [GSK215083, 3-[(3-fluorophenyl)sulfonyl]-8-(4-methyl-1-piperazinyl)quinoline]
cortex to cerebellum ratio (5-HT6 receptors [1]; [4]): 1 to 1
striatum to cerebellum ratio (5-HT6 receptors [1]; [4]): 1.1 to 1
cortex to cerebellum ratio (5-HT6 receptors [1]; [5]): 1.2 to 1
striatum to cerebellum ratio (5-HT6 receptors [1]; [5]): 1.5 to 1
cortex to cerebellum ratio (5-HT6 receptors [1]; [6]): 1.1 to 1
striatum to cerebellum ratio (5-HT6 receptors [1]; [6]): 1.3 to 1
selectivity for the human 5-HT6 receptor ([2]; over other receptors screened to date): selective for the human 5-HT6 receptor over other receptors screened to date

SMILES: [11CH3]N1CCN(c2cccc3cc(S(=O)(=O)c4cccc(F)c4)cnc23)CC1 [[^11C]GSK215083, [^11C-N-methyl]-3-(3-Fluoro-benzenesulfonyl)-8-(4-methyl-piperazin-1-yl)-quinoline]
cortex to cerebellum ratio (5-HT6 receptors [1]; [7]): 1.5 to 1
striatum to cerebellum ratio (5-HT6 receptors [1]; [7]): 2 to 1
concentration in cerebellum (5-HT6 receptors [3]; pig brain): low
rank order of regional brain concentrations (5-HT6 receptors [3]; pig brain): striatum>cortical regions>cerebellum
time of peak regional tissue concentrations post injection (5-HT6 receptors [3]; pig brain, intravenous 1 minute bolus): approximately 20 min
brain entry (5-HT6 receptors [3]; pig, intravenous 1 minute bolus): readily enters the brain
